Laboratory results published in patent US6887864B2, “Azepane derivatives” (Hoffmann-La Roche Inc., priority 2002, dated 2005).

Legend:
AKT [1] = biological target: T1, AKT (Homo sapiens, UniProt P31749); assay: cellular AKT activity assay (GSK-3 Ser21/Ser9 phosphorylation in LNCaP cells, immunoblot); type: cell-based; parameters: endogenous in cells; host or cells: LNCaP prostate cancer cells; conditions: 1 h treatment, inhibitors 6 μM to 187 nM, read-out: values found for effect on AKT activity in living cells (level of GSK-3-Ser21/Ser9 phosphorylation)
T1 sequence (P31749 whole entry): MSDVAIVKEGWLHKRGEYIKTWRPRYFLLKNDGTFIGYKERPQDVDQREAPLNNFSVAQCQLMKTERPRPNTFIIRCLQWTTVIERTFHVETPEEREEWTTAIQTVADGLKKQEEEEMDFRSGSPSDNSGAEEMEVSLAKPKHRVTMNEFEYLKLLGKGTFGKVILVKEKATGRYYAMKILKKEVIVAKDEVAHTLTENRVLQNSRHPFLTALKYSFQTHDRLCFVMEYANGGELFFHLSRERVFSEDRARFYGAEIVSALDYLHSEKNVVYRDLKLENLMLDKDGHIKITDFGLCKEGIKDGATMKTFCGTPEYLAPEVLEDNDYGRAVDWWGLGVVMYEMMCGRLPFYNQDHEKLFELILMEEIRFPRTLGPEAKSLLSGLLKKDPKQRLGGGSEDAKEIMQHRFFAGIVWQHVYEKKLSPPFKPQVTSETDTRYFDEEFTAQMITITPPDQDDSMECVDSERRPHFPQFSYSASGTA
Source text: Additionally to Example 3 the acticity of compounds according to the invention was studied on a cellular AKT activity assay as follows:
Prostate cancer cell line LNCaP was passaged in RPMI 1640 with 10% fetal calf serum, 50 units/ml penicillin, and 50 units/ml streptomycin. LNCaP cells were characterized by a constitutive activation of AKT. Constitutive active AKT phosphorylates glycogen synthase kinase-3 (GSK-3) at Ser21/Ser9 in LNCaP cells. To measure the effect of compounds on the activity of AKT in living cells, LNCaP cells were treated with various concentrations of inhibitors (6 μM to 187 nM). After 1 h, the cells were harvested in lysis solution containing 50 mM HEPES (pH 7.0), 150 mM NaCl, 1.5 mM MgCl2 ,1 mM EGTA, 100 mM NaF, 10 mM sodium PPi, 10% glycerol, 1% Triton X-100, 1 mM Na3 […], […], 5 mM iodoacetic acid, and […]. The proteins from whole cell extracts were electrophoresed on 7.5% SDS/PAGE gels. Afterwards, proteins were transferred onto Nitrocellulose filter and immunoblotting using the enhanced chemiluminescence (ECL) detection system (Amersham Pharmacia) was performed. The level of GSK-3-Ser21/Ser9 phosphorylation was thereby determined using polyclonal anti-P-GSK-3-Ser-21/9 antibody (rabbit; New England Biolabs).

AKT [2] = biological target: T1, AKT; assay: ELISA-based AKT kinase assay; type: biochemical; parameters: made in house; host or cells: Sf9 insect cells; conditions: AKT expressed in Sf9 cells, substrate peptide 300 nM, ATP 5 μM, 30 min at room temperature
Source text: In order to study AKT inhibitory activity of the compounds according to the invention, an ELISA-based assay was developed for AKT. The assay design utilized a N-terminally biotinylated substrate peptide. When this substrate was phosphorylated by the AKT kinase, the product was recognized by a substrate/sequence-specific antibody known to bind to particular phosphorylated serine residues. For this assay, a Biotin-[…] peptide and anti-phospho-GSK-3α Ser21 antibody (rabbit) from Cell Signaling Technology/New England Biolabs were used.
The enzymatic reactions were carried out with AKT expressed in Sf9 cells (100 ng/reaction), substrate peptide (300 nM) and ATP (5 μM) in the absence or presence of different concentrations of compounds dissolved in DMSO. The final concentration of DMSO was 1%. The mixtures were reacted for 30 min at room temperature in assay buffer containing 50 mM Tris-HCl, 10 mM MgCl2, 1.0 mM DTT, 2 mM Na3VO4, pH 7.5, in a final volume of 40 μl. The reaction was stopped with addition of 10 μl 0,12 M EDTA/0,12 M EGTA. The reaction mixture was transferred to a SA-coated micro-titer-plate. After 1 h incubation, the plate was washed with PBS using a 384-well Embla plate washer. Anti-phospho-GSK-3α Ser21 antibody was added. After 1 h incubation the plate was washed with PBS and bound antibody was detected by addition of polyclonal<Rabbit>S-IgG-POD-conjugate from Roche Diagnostics GmbH. After 1 h incubation, the plate was washed with PBS. Amount of phosphorylated peptide was measured by an enzyme-catalyzed color reaction (ABTS conversion) and photometrical measurement at 405 nm.
Calculation of IC50 values were performed with ActivityBase.

[3] = mouse plasma stability test; type: in vitro ADME; conditions: 10 μmol/1, 37° C.
Description: After defined periods of time with respect to the addition of said compounds to the mouse-plasma (t=0, 0.5, 1, 2, 4 h ), equal portions were isolated from the plasma, separated with HPLC and analyzed by mass spectrometry. During all these steps, the temperature was kept constant at 37° C. In the following table, the plasma stability of compounds according to the invention was compared to one of the selected compounds from EP 0 663 393 A1.

SMILES	melting point [°C]	IC50 (AKT [1]) [µM]	IC50 (AKT [2]) [µM]	Decrease [%] (after 4 h) [3]
CC1(C)CCCN(c2ccc(O)c(C(=O)c3ccc(C(=O)N[C@@H]4CCCNC[C@H]4NC(=O)c4ccncc4)cc3)c2)C1.Cl	194 to 198	–	–	–
CN(C)c1ccc(O)c(C(=O)c2ccc(C(=O)N[C@@H]3CCCNC[C@H]3NC(=O)c3ccncc3)cc2)c1.Cl	230 to 245	–	–	–
COc1ccc(O)c(C(=O)c2ccc(C(=O)N[C@@H]3CCCNC[C@H]3NC(=O)c3ccncc3)cc2)c1.Cl [Example 2-5, N-{(3R,4R)-4-[4-(2-Hydroxy-5-methoxy-benzoyl)-benzoylamino]-azepan-3-yl}-isonicotinamide hydrochloride]	230 to 240	2	0.015	–
Cc1cccc(C(=O)c2ccc(C(=O)N[C@@H]3CCCNC[C@H]3NC(=O)c3ccncc3)cc2)c1.Cl	190 to 196	–	–	–
COc1ccc(O)c(C(=O)c2ccc(C(=O)N[C@@H]3CCCNC[C@H]3NC(=O)c3ccnc(N)c3)cc2)c1F.Cl	223 to 241	–	–	–
COc1ccc(O)c(C(=O)c2ccc(C(=O)N[C@@H]3CCCNC[C@H]3NC(=O)c3ccncc3)cc2)c1OC.Cl [Example 2-4, N-{(3R,4R)-4-[4-(6-Hydroxy-2,3-dimethoxy-benzoyl)-benzoylamino]-azepan-3-yl}-isonicotinamide hydrochloride]	185 to 193	> 24	0.116	–
CC(C)Nc1ccc(O)c(C(=O)c2ccc(C(=O)N[C@@H]3CCCNC[C@H]3NC(=O)c3ccncc3)cc2)c1.Cl	227 to 230	–	–	–
Cl.O=C(N[C@@H]1CCCNC[C@H]1NC(=O)c1ccncc1)c1ccc(C(=O)c2c(O)ccc3ncccc23)cc1	215 to 220	–	–	–
CC(C)(C)c1ccc2cc(O)c(C(=O)c3ccc(C(=O)N[C@@H]4CCCNC[C@H]4NC(=O)c4ccncc4)cc3)c(F)c2n1.Cl	215	–	–	–
Cc1ccc2cc(O)c(C(=O)c3ccc(C(=O)N[C@@H]4CCCNC[C@H]4NC(=O)c4ccncc4)cc3)c(F)c2n1.Cl	255 to 260	–	–	–
COc1ccc(O)c(C(=O)c2ccc(C(=O)N[C@@H]3CCCNC[C@H]3NC(=O)c3ccc(O)cc3)cc2)c1F.Cl	190 to 196	–	–	–
Cl.NCc1ccc(O)c(C(=O)c2ccc(C(=O)N[C@@H]3CCCNC[C@H]3NC(=O)c3ccncc3)cc2)c1	215 to 218	–	–	–
Cc1ccc(O)c(C(=O)c2ccc(C(=O)N[C@@H]3CCCNC[C@H]3NC(=O)c3ccncc3)cc2)c1F.Cl [Example 2-1, N-{(3R,4R)-4-[4-(2-Fluoro-6-hydroxy-3-methyl-benzoyl)-benzoylamino]-azepan-3-yl}-isonicotinamide hydrochloride]	181 to 184	3	0.007	21.9
Cl.O=C(N[C@@H]1CCCNC[C@H]1NC(=O)c1ccncc1)c1ccc(C(=O)c2c(O)cc3cccnc3c2F)cc1	247 to 251	–	–	–
CC1(C)CCN(c2ccc(O)c(C(=O)c3ccc(C(=O)N[C@@H]4CCCNC[C@H]4NC(=O)c4ccncc4)cc3)c2)CC1.Cl	229 to 234	–	–	–
CC(C)Oc1ccc(O)c(C(=O)c2ccc(C(=O)N[C@@H]3CCCNC[C@H]3NC(=O)c3ccncc3)cc2)c1.Cl	243 to 249	–	–	–
Cl.O=C(N[C@@H]1CCCNC[C@H]1NC(=O)c1ccncc1)c1ccc(C(=O)c2cc(C3CCCCN3)ccc2O)cc1 (stereo partly drawn)	195 to 210	–	–	–
Cl.O=C(N[C@@H]1CCCNC[C@H]1NC(=O)c1ccncc1)c1ccc(C(=O)c2cc(N3CCCCC3)ccc2O)cc1	218 to 224	–	–	–
COc1ccc(O)c(C(=O)c2ccc(C(=O)N[C@@H]3CCCNC[C@H]3NC(=O)c3ccncc3)cc2)c1F.Cl [Example 1a, N-{(3R, 4R)-4-[4-(2-Fluoro-6-hydroxy-3-methoxy-benzoyl)-benzoylamino]-azepan-3-yl}-isonicotinamide hydrochloride]	200 to 222	–	–	6.2
CSc1ccc(O)c(C(=O)c2ccc(C(=O)N[C@@H]3CCCNC[C@H]3NC(=O)c3ccncc3)cc2)c1.Cl [Example 2-2, N-{(3R,4R)-4-[4-(6-Hydroxy-3-methylsulfanyl-benzoyl)-benzoylamino]-azepan-3-yl}-isonicotinamide hydrochloride]	183 to 185	1.5	0.011	26.9
COc1ccc(O)c(C(=O)c2ccc(C(=O)N[C@@H]3CCCNC[C@H]3NC(=O)c3ccncn3)cc2)c1F.Cl	256 to 265	–	–	–
Cl.O=C(N[C@@H]1CCCNC[C@H]1NC(=O)c1ccncc1)c1ccc(C(=O)c2c(O)ccc3c2OCCO3)cc1	230 to 240	–	–	–
Cc1cc(C(=O)N[C@@H]2CNCCC[C@H]2NC(=O)c2ccc(C(=O)c3cc(N(C)C)ccc3O)cc2)cc(C)c1O.Cl	217 to 219	–	–	–
CC1(C)CCCNC1c1ccc(O)c(C(=O)c2ccc(C(=O)N[C@@H]3CCCNC[C@H]3NC(=O)c3ccncc3)cc2)c1F.Cl (stereo partly drawn)	265	–	–	–
Cc1cc(C(=O)c2ccc(C(=O)N[C@@H]3CCCNC[C@H]3NC(=O)c3ccncc3)cc2)c(O)cn1.Cl	203 to 208	–	–	–
CN(C)c1ccc(O)c(C(=O)c2ccc(C(=O)N[C@@H]3CCCNC[C@H]3NC(=O)c3ccc(O)cc3)cc2)c1.Cl	203 to 206	–	–	–
Cc1ccc(O)c(C(=O)c2ccc(C(=O)N[C@@H]3CCCNC[C@H]3NC(=O)c3ccncc3)cc2)c1.Cl [Example 2-6, N-{(3R,4R)-4-[4-(2-Hydroxy-5-methyl-benzoyl)-benzoylamino]-azepan-3-yl}-isonicotinamide hydrochloride]	215 to 219	1	0.016	–
Cl.O=C(N[C@@H]1CCCNC[C@H]1NC(=O)c1ccncc1)c1ccc(C(=O)c2cc(O)ccc2O)cc1	108 to 114	–	–	–
COc1ccc(O)c(C(=O)c2ccc(C(=O)N[C@@H]3CCCNC[C@H]3NC(=O)c3cc(C)c(O)c(C)c3)cc2)c1F.Cl	180 to 183	–	–	–
